From patent US12448394B2, “Heterocyclic pyrazole derivatives as type III receptor tyrosine kinase inhibitors” (DEVELOPMENT CENTER FOR BIOTECHNOLOGY, priority 2019, dated 2025) come the findings set out here.

Numbering of substitutions follows the chain as printed.

One may read the IC50 as the midpoint of a concentration-inhibition curve.

One test has as its target T1, FLT3-D835Y mutant kinase (Homo sapiens, UniProt P36888, D835Y).
T1 construct: purchased SignalChem
T1 sequence (P36888 27-993 D835Y): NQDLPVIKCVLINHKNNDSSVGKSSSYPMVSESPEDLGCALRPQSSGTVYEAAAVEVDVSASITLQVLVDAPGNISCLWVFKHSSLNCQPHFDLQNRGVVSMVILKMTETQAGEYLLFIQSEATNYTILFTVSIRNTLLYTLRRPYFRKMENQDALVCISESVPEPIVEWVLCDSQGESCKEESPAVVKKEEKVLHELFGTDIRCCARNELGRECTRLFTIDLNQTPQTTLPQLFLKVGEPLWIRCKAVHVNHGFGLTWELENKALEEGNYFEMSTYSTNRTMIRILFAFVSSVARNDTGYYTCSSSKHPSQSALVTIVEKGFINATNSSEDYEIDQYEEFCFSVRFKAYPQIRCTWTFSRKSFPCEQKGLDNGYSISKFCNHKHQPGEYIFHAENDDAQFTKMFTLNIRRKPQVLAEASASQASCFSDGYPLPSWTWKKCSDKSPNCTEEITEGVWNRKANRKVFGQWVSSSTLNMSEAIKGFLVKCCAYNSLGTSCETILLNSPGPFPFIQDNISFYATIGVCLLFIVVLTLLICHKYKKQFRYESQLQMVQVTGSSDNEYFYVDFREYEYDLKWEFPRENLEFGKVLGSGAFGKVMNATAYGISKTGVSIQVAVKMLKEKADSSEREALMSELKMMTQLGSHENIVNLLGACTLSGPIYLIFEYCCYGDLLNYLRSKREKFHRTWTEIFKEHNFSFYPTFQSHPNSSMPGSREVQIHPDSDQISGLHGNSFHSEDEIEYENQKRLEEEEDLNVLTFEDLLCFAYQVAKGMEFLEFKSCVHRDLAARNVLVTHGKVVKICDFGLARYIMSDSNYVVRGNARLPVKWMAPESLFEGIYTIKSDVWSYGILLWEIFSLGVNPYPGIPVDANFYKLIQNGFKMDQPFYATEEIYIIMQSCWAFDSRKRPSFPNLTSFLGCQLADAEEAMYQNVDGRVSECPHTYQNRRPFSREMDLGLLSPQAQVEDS
Nature of the test: FLT3-D835Y mutant kinase assay (AlphaScreen). Type of test: biochemical. The conditions noted are these: read-out: Ranking of IC50 values, FLT3-D835Y. An outline of the steps: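 Recombinant FLT3-D835Y (1 ng) phosphorylated biotin-poly(Glu4:Tyr1) at 10 μM ATP, pH 7.0 MOPS buffer with 10 mM MgCl2, for 30 min at 30 °C, stopped with EDTA. Product was read by AlphaScreen. IC50 came from serial dilutions run in duplicate.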
For orientation: Alpha assays give light when donor and acceptor beads are brought close together.

The target of a further test is T2, FLT3 kinase (Homo sapiens, UniProt P36888).
T2 construct: purchased SignalChem
T2 sequence (P36888 27-993): T1 sequence (P36888 27-993 D835Y) with Y809D
Briefly: FLT3 kinase assay (AlphaScreen). Type of test: biochemical. To be noted: read-out: Ranking of IC50 values, FLT3. The essentials:
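Recombinant FLT3 (1.5 ng) phosphorylated biotinylated poly(Glu4:Tyr1) with 10 μM ATP in MOPS pH 7.0 buffer containing 10 mM MgCl2, 30 min at 30 °C, stopped with EDTA. Product detected by AlphaScreen; IC50 from duplicate serial dilutions.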

Take `Cn1ncc2ccc(-c3n[nH]c4c3Cc3sc(-c5ccc(CN6CCC6)cc5)cc3-4)cc21` [Compound 103, 6-(4-(azetidin-1-ylmethyl)phenyl)-3-(1-methyl-1H-indazol-6-yl)-1,4-dihydro-thieno[2′,3′:4,5]cyclopenta [1,2-c]pyrazole]: the IC50 on FLT3-D835Y mutant kinase and on FLT3 kinase was below 1 nM throughout.
In the case of `Cn1ncc2ccc(-c3n[nH]c4c3Cc3sc(-c5ccc(C(=O)N6CCCCC6)cc5)cc3-4)cc21` [Compound 34, (4-(3-(1-methyl-1H-indazol-6-yl)-1,4-dihydro-thieno[2′,3′:4,5]cyclopenta [1,2-c]pyrazol-6-yl)phenyl)(piperidin-1-yl) methanone], the IC50 at FLT3-D835Y mutant kinase and on FLT3 kinase was 1 to 10 nM in each case.
With `COc1cc(CN2CCOCC2)ccc1-c1cc2c(s1)Cc1c(-c3ccc4cnn(C)c4c3)n[nH]c1-2` [Compound 29, 4-(3-methoxy-4-(3-(1-methyl-1H-indazol-6-yl)-1,4-dihydrothieno [2′,3′:4,5]cyclopenta[1,2-c]pyrazol-6-yl)benzyl) morpholine], the 50% inhibitory concentration (IC50) on FLT3-D835Y mutant kinase and at FLT3 kinase was below 1 nM throughout.
In the case of `CN1CCN(C(=O)c2ccc(-c3cc4c(s3)Cc3c(-c5ccc6cnn(C)c6c5)n[nH]c3-4)cc2)CC1` [Compound 15, (4-(3-(1-methyl-1H-indazol-6-yl)-1,4-dihydrothieno[2′,3′:4,5]cyclopenta[1,2-c]pyrazol-6-yl)phenyl)(4-methyl-piperazin-1-yl)methanone], the IC50 on FLT3-D835Y mutant kinase and at FLT3 kinase was below 1 nM each time.
As for `Cc1ccc(-c2cc3c(s2)Cc2c(-c4ccc5cnn(C)c5c4)n[nH]c2-3)cn1` [Compound 11, 3-(1-methyl-1H-indazol-6-yl)-6-(6-methylpyridin-3-yl)-1,4-dihydrothieno [2′,3′:4,5]cyclopenta[1,2-c] pyrazole], the IC50 at FLT3-D835Y mutant kinase is below 1 nM; at FLT3 kinase, 1 to 10 nM.
The matching figures for `Cn1ncc2ccc(-c3n[nH]c4c3Cc3sc(-c5ccc(CN6CCCCC6)cc5)cc3-4)cc21` [Compound 100, 3-(1-methyl-1H-indazol-6-yl)-6-(4-(piperidin-1-ylmethyl)phenyl)-1,4-dihydrothieno[2′,3′:4,5] cyclopenta[1,2-c]pyrazole]: below 1 nM and below 1 nM.
On to `CC(C)n1ncc2ccc(-c3n[nH]c4c3Cc3sc(-c5ccc(CN6CCOCC6)cc5)cc3-4)cc21` [Compound 42, 4-(4-(3-(1-isopropyl-1H-indazol-6-yl)-1,4-dihydro-thieno[2′,3′:4,5]cyclopenta [1,2-c]pyrazol-6-yl)benzyl)morpholine], for which the results for the IC50 at FLT3-D835Y mutant kinase and on FLT3 kinase were 1 to 10 nM and below 1 nM, respectively.
The matching figures for `Cn1ncc2ccc(-c3n[nH]c4c3Cc3sc(-c5ccc(CN6CCCCC6=O)cc5)cc3-4)cc21` [Compound 61, 1-(4-(3-(l-methyl-1H-indazol-6-yl)-1,4-dihydro-thieno[2′,3′:4,5]cyclopenta [1,2-c]pyrazol-6-yl)benzyl)piperidin-2-one]: below 1 nM and 1 to 10 nM.
The like results for `CC(c1ccc(-c2cc3c(s2)Cc2c(-c4ccc5cnn(C)c5c4)n[nH]c2-3)cc1)N1CCOCC1` (stereo not drawn) [Compound 20, 4-(1-(4-(3-(1-methyl-1H-indazol-6-yl)-1,4-dihydro-thieno[2′,3′:4,5]cyclopenta [1,2-c]pyrazol-6-yl)phenyl)ethyl)morpholine] were, in that order, 1 to 10 nM and 1 to 10 nM.
The matching figures for `Cn1ncc2ccc(-c3n[nH]c4c3Cc3sc(-c5ccc(NC6CCOCC6)cc5)cc3-4)cc21` [Compound 72, N-(4-(3-(1-methyl-1H-indazol-6-yl)-1,4-dihydro-thieno[2′,3′:4,5]cyclopenta [1,2-c]pyrazol-6-yl)phenyl)tetrahydro-2H-pyran-4-amine]: 1 to 10 nM and 1 to 10 nM.
Take `Cn1ncc2ccc(-c3n[nH]c4c3Cc3sc(C5CCN(C(=O)CN6CCOCC6)CC5)cc3-4)cc21` [Compound 98, 1-(4-(3-(1-methyl-1H-indazol-6-yl)-1,4-dihydro-thieno[2′,3′:4,5]cyclopenta [1,2-c]pyrazol-6-yl)piperidin-1-yl)-2-morpholinoethan-1-one]: the IC50 on FLT3-D835Y mutant kinase and at FLT3 kinase was below 1 nM each time.
For the compound `Cn1ncc2ccc(-c3n[nH]c4c3Cc3sc(-c5ccc(CN6CCOCC6)cc5F)cc3-4)cc21` [Compound 32, 4-(3-fluoro-4-(3-(1-methyl-1H-indazol-6-yl)-1,4-dihydrothieno [2′,3′:4,5]cyclopenta [1,2-c]pyrazol-6-yl)benzyl)morpholine], the IC50 at FLT3-D835Y mutant kinase and on FLT3 kinase was below 1 nM throughout.
With `C[C@@H]1CN(Cc2cccc(-c3cc4c(s3)Cc3c(-c5ccc6cnn(C)c6c5)n[nH]c3-4)c2)C[C@H](C)O1` [Compound 12, (2S,6R)-2,6-dimethyl-4-(3-(3-(1-methyl-1H-indazol-6-yl)-1,4-dihydrothieno [2′,3′:4,5]cyclopenta[1,2-c]pyrazol-6-yl)benzyl) morpholine], the IC50 at FLT3-D835Y mutant kinase and at FLT3 kinase was 1 to 10 nM each time.
Take `Cn1ncc2ccc(-c3n[nH]c4c3Cc3sc(-c5ccc(CN6CCCC6)cc5)cc3-4)cc21` [Compound 99, 3-(1-methyl-1H-indazol-6-yl)-6-(4-(pyrrolidin-1-ylmethyl)phenyl)-1,4-dihydrothieno[2′,3′:4,5] cyclopenta[1,2-c]pyrazole]: the IC50 at FLT3-D835Y mutant kinase and on FLT3 kinase was below 1 nM each time.
With `Cn1ncc2ccc(-c3n[nH]c4c3Cc3sc(C5CCNCC5)cc3-4)cc21` [Compound 96, 3-(1-methyl-1H-indazol-6-yl)-6-(piperidin-4-yl)-1,4-dihydrothieno [2′,3′:4,5]cyclopenta [1,2-c]pyrazole], the 50% inhibitory concentration (IC50) at FLT3-D835Y mutant kinase and at FLT3 kinase was below 1 nM each time.
On to `c1cc(CN2CCOCC2)ncc1-c1cc2c(s1)Cc1c(-c3ccc4cn[nH]c4c3)n[nH]c1-2` [Compound 18, 4-((5-(3-(1H-indazol-6-yl)-1,4-dihydrothieno[2′,3′:4,5]cyclopenta[1,2-c]pyrazol-6-yl)pyridin-2-yl)methyl) morpholine], for which the half-inhibitory concentration (IC50) was 1 to 10 nM at FLT3-D835Y mutant kinase and below 1 nM at FLT3 kinase.
The like results for `Cn1ncc2ccc(-c3n[nH]c4c3Cc3sc(C5CCN(C(=O)OC(C)(C)C)CC5)cc3-4)cc21` [Compound 58, tert-butyl-4-(3-(1-methyl-1H-indazol-6-yl)-1,4-dihydrothieno[2′,3′:4,5]cyclopenta[1,2-c]pyrazol-6-yl)piperidine-1-carboxylate] were, in that order, 1 to 10 nM and 1 to 10 nM.
The matching figures for `Cn1ncc2ccc(-c3n[nH]c4c3Cc3sc(-c5ccc(C(=O)N6CCOCC6)c(F)c5)cc3-4)cc21` [Compound 44, (2-fluoro-4-(3-(1-methyl-1H-indazol-6-yl)-1,4-dihydrothieno[2′,3′:4,5]cyclopenta[1,2-c]pyrazol-6-yl)phenyl)(morpholino) methanone]: below 1 nM and below 1 nM.
